Data on 16 molecules can be found in US10800772B2 (Gilead Sciences, Inc., priority 2016, dated 2020).

SMILES strings stand for the structures. Where two headings read alike, the source gives them in different places.

Holding throughout (format): cell-based, HIV-1
Assay [1] has as its system HIV-IIIb IN T174I DE. Kind of assay: Antiviral assay in MT4 cells, HIV-IIIb IN T174I DE virus (from dose escalation passaging). The following applies: Human immunodeficiency virus 1, IIIB, MT4, 120 h, read-out: T174I DE EC50, MT4 cells, HIV-IIIb IN T174I DE (dose escalation), 5 days, CellTiter-Glo. The method, then: (§1) Antiviral Assay in MT4 Cells
(§2) For the antiviral assay, 0.4 μL of 189X test concentration of 3-fold serially diluted compound in DMSO was added to 40 μL of cell growth medium (RPMI 1640, 10% FBS, 1% Penicillin-Streptomycin, 1% L-Glutamine, 1% HEPES) in each well of 384-well plate (10 concentrations) in quadruplicate.
(§3) 1 mL Aliquots of MT4 cells were pre-infected for 3 hours at 37° C. with 25 μL of cell growth medium (mock-infected) or a fresh 1:250 dilution of an HIV-IIIb (wildtype, IN T174I BT, or IN T174I DE) concentrated ABI stock (0.004 m.o.i.). IN T174I BT virus was derived from viral breakthrough (BT) assay as described in Mulato, A.; Hansen, D.; Thielen, A.; Porter, D.; Stepan, G.; White, K.; Daeumer, M.; Cihlar, T.; Yant, S. R. AIDS Research and Human Retrovirues, July 2016, ahead of print. doi:10.1089/aid.2016.0071. IN T174I DE virus was derived from serial passaging with dose escalation (DE) of test compound. Infected and uninfected cells were diluted in cell growth media and 35 μL (2000 cells) was added to each well of the assay plates.
(§4) Assay plates were then maintained in a humidified, 5% CO2 incubator at 37° C. After 5 days of incubation, 25 μl of 2× concentrated CellTiter-Glo™ Reagent (catalog # G7573, Promega Biosciences, Inc., Madison, Wis.) was added to each well of the assay plate. Cell lysis was carried out by incubating at room temperature for 10 minutes and then chemiluminescence was read using an Envision plate reader (PerkinElmer). EC50 values were calculated as the compound concentration that caused a 50% […] in luminescence signal, a measure of HIV-1 replication.
In general terms: In ATP-based viability assays light output follows the ATP content of the culture.

Assay [2] deals with HIV-IIIb (wildtype). Kind of assay: Antiviral assay in MT4 cells, HIV-IIIb wildtype. The following applies: read-out: WT EC50. The method, then:
as §1, §2, §3, §4

Assay [3] has as its system HIV-IIIb IN T174I BT. Kind of assay: Antiviral assay in MT4 cells, HIV-IIIb IN T174I BT virus (from viral breakthrough). Conditions: Human immunodeficiency virus 1, IIIB, MT4, 120 h, read-out: T174I BT EC50, MT4 cells, HIV-IIIb IN T174I BT (viral breakthrough), 5 days, CellTiter-Glo. On the procedure:
as §1, §2, §3, §4

Setting [4] is: Human immunodeficiency virus 1, IIIB, MT4, 120 h.

By EC50 is commonly meant the midpoint of the concentration-response curve. Turning to `Cc1cc2nc(-c3ccc4c(c3)c(C3CCN(C5(C)COC5)CC3)nn4C)sc2c(-c2ccc(Cl)cc2)c1[C@H](OC(C)(C)C)C(=O)O` [Compound 20, (S)-2-(tert-butoxy)-2-(7-(4-chlorophenyl)-5-methyl-2-(1-methyl-3-(1-(3-methyloxetan-3-yl)piperidin-4-yl)-1H-indazol-5-yl)benzo[d]thiazol-6-yl)acetic Acid], the EC50 in assay [1] stood at 542 nM; in assay [2] (setting [4]), 7 nM; in assay [3], 287 nM.
`Cc1cc2nc(-c3cnc4c(c3)c(N3CCN(C(C)C)CC3)nn4C)sc2c(-c2ccc(Cl)cc2)c1[C@H](OC(C)(C)C)C(=O)O` [Compound 111, (S)-2-(tert-butoxy)-2-(7-(4-chlorophenyl)-2-(3-(4-isopropylpiperazin-1-yl)-1-methyl-1H-pyrazolo[3,4-b]pyridin-5-yl)-5-methylbenzo[d]thiazol-6-yl)acetic acid]: the EC50 in assay [1] was 2880 nM; in assay [2] (setting [4]), 5 nM; in assay [3] it was 1150 nM.
As to `Cc1cc2nc(-c3cnc4c(c3)c(C3CCN(C5COC5)CC3)nn4C)sc2c(-c2ccc(Cl)cc2)c1[C@H](OC(C)(C)C)C(=O)O` [Compound 113, (S)-2-(tert-butoxy)-2-(7-(4-chlorophenyl)-5-methyl-2-(1-methyl-3-(1-(oxetan-3-yl)piperidin-4-yl)-1H-pyrazolo[3,4-b]pyridin-5-yl)benzo[d]thiazol-6-yl)acetic acid], the 50% effective concentration (EC50) was found to be 1520 nM in assay [1], 5 nM in assay [2] (setting [4]) and 871 nM in assay [3].
On to `Cc1cc2nc(-c3ccc4c(c3)c(N3CCN(C5(C)COC5)CC3)nn4C)sc2c(-c2ccc(Cl)cc2)c1[C@H](OC(C)(C)C)C(=O)O` [Compound 207, (S)-2-(tert-butoxy)-2-(7-(4-chloro-phenyl)-5-methyl-2-(1-methyl-3-(4-(3-methyloxetan-3-yl)piperazin-1-yl)-1H-indazol-5-yl)benzo[d]thiazol-6-yl)acetic acid], for which the concentration for a half-maximal effect (EC50) amounted to 693 nM in assay [1], 4 nM in assay [2] (setting [4]) and 380 nM in assay [3].
For `COCCN1CC(c2nn(C)c3ccc(-c4nc5cc(C)c([C@H](OC(C)(C)C)C(=O)O)c(-c6ccc(Cl)cc6)c5s4)cc23)C1` [Compound 56, (S)-2-(tert-butoxy)-2-(7-(4-chlorophenyl)-2-(3-(1-(2-methoxyethyl)azetidin-3-yl)-1-methyl-1H-indazol-5-yl)-5-methylbenzo[d]thiazol-6-yl)acetic acid] the same measures were 2070 nM, 4 nM and 1390 nM.
In the same order, the values of `COC(=O)N1CC(N2CCC(c3nn(C4CC4)c4ccc(-c5nc6cc(C)c([C@H](OC(C)(C)C)C(=O)O)c(-c7ccc(Cl)cc7)c6s5)nc34)CC2)C1` [Compound 180, (S)-2-(tert-butoxy)-2-(7-(4-chloro-phenyl)-2-(1-cyclopropyl-3-(1-(1-(methoxy-carbonyl)azetidin-3-yl)piperidin-4-yl)-1H-pyrazolo [4,3-b]pyridin-5-yl)-5-methylbenzo [d]thiazol-6-yl) acetic acid] are 212 nM, 4 nM and 64 nM.
With `CC(=O)N1CC(N2CCC(c3nn(C4CC4)c4ccc(-c5nc6cc(C)c([C@H](OC(C)(C)C)C(=O)O)c(-c7ccc(Cl)cc7)c6s5)cc34)CC2)C1` [Compound 45, (S)-2-(2-(3-(1-(1-acetylazetidin-3-yl)piperidin-4-yl)-1-cyclopropyl-1H-indazol-5-yl)-7-(4-chlorophenyl)-5-methylbenzo[d]thiazol-6-yl)-2-(tert-butoxy)acetic Acid], the EC50 in assay [1] was determined as 287 nM; in assay [2] (setting [4]), 17 nM; in assay [3], 174 nM.
In the same order, the values of `Cc1cc2nc(-c3ccc4c(c3)c(C3CCN(C5CN(C(C)C(F)(F)F)C5)CC3)nn4C)sc2c(-c2ccc(Cl)cc2)c1[C@H](OC(C)(C)C)C(=O)O` (stereo partly drawn) [Compound 8, (2S)-2-(tert-butoxy)-2-(7-(4-chlorophenyl)-5-methyl-2-(1-methyl-3-(1-(1-(1,1,1-trifluoropropan-2-yl)azetidin-3-yl)piperidin-4-yl)-1H-indazol-5-yl)benzo[d]thiazol-6-yl)acetic Acid] are 1330 nM, 13 nM and 1090 nM.
For the molecule `CCN1CCN(c2nn(C)c3ccc(-c4nc5cc(C)c([C@H](OC(C)(C)C)C(=O)O)c(-c6ccc(Cl)cc6)c5s4)cc23)C1=O` [Compound 82, (S)-2-(tert-butoxy)-2-(7-(4-chlorophenyl)-2-(3-(3-ethyl-2-oxoimidazolidin-1-yl)-1-methyl-1H-indazol-5-yl)-5-methylbenzo[d]thiazol-6-yl)acetic acid], the concentration giving a half-maximal response (EC50) in assay [1] stood at 3870 nM; in assay [2] (setting [4]), 14 nM; in assay [3], 3090 nM.
Regarding `Cc1cc2nc(-c3ccc4c(c3)c(C3CCN(C[C@@H]5CCN5C)CC3)nn4C)sc2c(-c2ccc(Cl)cc2)c1[C@H](OC(C)(C)C)C(=O)O` [Compound 149, (S)-2-(tert-butoxy)-2-(7-(4-chloro-phenyl)-5-methyl-2-(1-methyl-3-(1-(((S)-1-methyl-azetidin-2-yl)methyl)piperidin-4-yl)-1H-indazol-5-yl)benzo[d]thiazol-6-yl) acetic acid], the results for the half-maximal effective concentration (EC50) in assay [1], in assay [2] (setting [4]) and in assay [3] were 98 nM, 11 nM and 80 nM, respectively.
For the molecule `Cc1cc2nc(-c3ccc4c(n3)c(C3CCN(C5COC5)CC3)nn4C(F)F)sc2c(-c2ccc(Cl)cc2)c1[C@H](OC(C)(C)C)C(=O)O` [Compound 194, (S)-2-(tert-butoxy)-2-(7-(4-chloro-phenyl)-2-(1-(difluoromethyl)-3-(1-(oxetan-3-yl)piperidin-4-yl)-1H-pyrazolo [4,3-b]pyridin-5-yl)-5-methylbenzo [d]thiazol-6-yl) acetic acid], the EC50 in assay [1] turned out to be 300 nM; in assay [2] (setting [4]) it was 4 nM; in assay [3], 126 nM.
In the same order, the values of `CCN1CCN(c2nn(C)c3ccc(-c4nc5cc(C)c([C@H](OC(C)(C)C)C(=O)O)c(-c6ccc(Cl)cc6)c5s4)cc23)C(=O)C1` [Compound 86, (S)-2-(tert-butoxy)-2-(7-(4-chlorophenyl)-2-(3-(4-ethyl-2-oxopiperazin-1-yl)-1-methyl-1H-indazol-5-yl)-5-methylbenzo[d]thiazol-6-yl)acetic acid] are 2000 nM, 15 nM and 2330 nM.
In the case of `Cc1cc2nc(-c3ccc4[nH]nc(C5CCN(C6COC6)CC5)c4c3)sc2c(-c2ccc(Cl)cc2)c1[C@H](OC(C)(C)C)C(=O)O` [Compound 34, (S)-2-(tert-butoxy)-2-(7-(4-chlorophenyl)-5-methyl-2-(3-(1-(oxetan-3-yl)piperidin-4-yl)-1H-indazol-5-yl)benzo[d]thiazol-6-yl)acetic acid], the EC50 came out at 1170 nM in assay [1]; 31 nM in assay [2] (Human immunodeficiency virus 1, 120 h, MT4 cells, HIV-IIIb wildtype, 5 days, CellTiter-Glo); 968 nM in assay [3].
For the molecule `Cc1cc2nc(-c3ccc4c(c3)c(N3CCN5C(=O)COC[C@H]5C3)nn4C)sc2c(-c2ccc(Cl)cc2)c1[C@H](OC(C)(C)C)C(=O)O` [Compound 205, (S)-2-(tert-butoxy)-2-(7-(4-chloro-phenyl)-5-methyl-2-(1-methyl-3-((R)-4-oxohexa-hydropyrazino [2,1-c][1,4]oxazin-8(1H)-yl)-1H-indazol-5-yl)benzo[d]thiazol-6-yl)acetic acid], the results for the EC50 in assay [1], in assay [2] (setting [4]) and in assay [3] were 736 nM, 7 nM and 457 nM, respectively.
With `Cc1cc2nc(-c3ccc4c(c3)c(N3CCN(C)CC3=O)nn4C)sc2c(-c2ccc(Cl)cc2)c1[C@H](OC(C)(C)C)C(=O)O` [Compound 87, (S)-2-(tert-butoxy)-2-(7-(4-chlorophenyl)-5-methyl-2-(1-methyl-3-(4-methyl-2-oxopiperazin-1-yl)-1H-indazol-5-yl)benzo[d]thiazol-6-yl)acetic acid], the half-maximal effective concentration (EC50) in assay [2] (setting [4]) turned out to be 13 nM.
With `Cc1cc2nc(-c3ccc4c(n3)c(N3CCN(C)CC3)nn4C)sc2c(-c2ccc(Cl)cc2)c1[C@H](OC(C)(C)C)C(=O)O` [Compound 196, (S)-2-(tert-butoxy)-2-(7-(4-chloro-phenyl)-5-methyl-2-(1-methyl-3-(4-methylpiperazin-1-yl)-1H-pyrazolo [4,3-b]pyridin-5-yl)benzo[d]thiazol-6-yl)acetic acid], the half-maximal effective concentration (EC50) in assay [2] (setting [4]) amounted to 4 nM.
